According to the Deep4Chem optical property database:
Blank lines part the entries; values can stand above or below the compound they belong to.

Experiment: solvent given as SMILES

SMILES: COc1ccc(C2=N/C(=C\c3ccccc3)C(=O)N2)cc1OC
- absorption maximum (in C1COCCO1): 390 nm

SMILES: COC(=O)C(NC(=O)OC(C)(C)C)c1ccc2oc(-c3ccc(O)cc3O)nc2c1 (centres undefined)
- absorption maximum (in CC1CCCCC1): 336 nm
- absorption maximum (in CC#N): 320 nm
- absorption maximum (in CO): 321 nm

SMILES: Cc1ccc(N(c2cc(C(C)(C)C)ccc2C)c2ccc3ccc4c(N(c5ccc(C)cc5C)c5cc(C(C)(C)C)ccc5C)ccc5ccc2c3c54)c(C)c1
- absorption maximum (in Cc1ccccc1): 431 nm

SMILES: CC(C)(C)C1CCC(=CS/C=C/c2ccc(-c3ccc(/C=C/SC=C4CCC(C(C)(C)C)CC4)cc3)cc2)CC1 (centres undefined)
- absorption maximum (in ClCCl): 350 nm

SMILES: CC(=O)c1c2c(cc3ccc(N(C)C)cc13)CCC2
- absorption maximum (in C1CCCCC1): 373 nm
- absorption maximum (in C1CCOC1): 377 nm
- absorption maximum (in C1COCCO1): 376 nm
- absorption maximum (in CC#N): 375 nm
- absorption maximum (in CCO): 377 nm
- absorption maximum (in CS(C)=O): 377 nm
- absorption maximum (in Cc1ccccc1): 376 nm
- absorption maximum (in ClC(Cl)Cl): 377 nm
- absorption maximum (in ClCCl): 377 nm

SMILES: CC(C)(C)OC(=O)NC(Cc1ccccc1)C(=O)OCc1ccc2c3cccc4cccc(c5cccc1c52)c43 (centres undefined)
- absorption maximum (in CCO): 440 nm

SMILES: CCCN1c2ccccc2Sc2cc(C3=C4C=CC=[N+]4[B-](F)(F)n4cccc43)ccc21
- absorption maximum (in ClCCl): 499 nm

SMILES: CCOC(=O)c1cc(C(=O)OCC)c2cc(C(=O)O)ccc2n1
- absorption maximum (in CCO): 316 nm

SMILES: COc1ccc2c(-c3nc(-c4cccc(Br)c4)no3)cc(=O)oc2c1
- absorption maximum (in CCO): 259 nm
- absorption maximum (in ClC(Cl)Cl): 360 nm

SMILES: Nc1cc2nc3cc(Br)c(Br)cc3nc2cc1N
- absorption maximum (in CCO): 442 nm

SMILES: CCC1=C(C)C2=C(C)c3c(I)c(I)c(I)n3[B-](F)(F)[N+]2=C1C
- absorption maximum (in C1CCCCC1): 531.5 nm
- absorption maximum (in CC(C)=O): 517.5 nm
- absorption maximum (in CCO): 522 nm
- absorption maximum (in CCOC(C)=O): 521 nm
- absorption maximum (in CO): 519.5 nm
- absorption maximum (in OCC(F)(F)F): 511.5 nm

SMILES: COc1ccc(-c2[nH]c(=O)n3c2-c2ccccc2C3=O)c(OC)c1
- absorption maximum (in CC#N): 401 nm
- absorption maximum (in CO): 401 nm
- absorption maximum (in ClCCl): 406 nm

SMILES: CC(C)(C)c1cc(C(C)(C)C)c(-c2nnc(-c3ccc(-n4c5ccccc5c5ccccc54)cc3)o2)c(C(C)(C)C)c1
- absorption maximum (in Cc1ccccc1): 340 nm

SMILES: c1cc2ccc3cc4[nH]ccc4c4ccc(c1)c2c34
- absorption maximum (in CCOC(C)=O): 384 nm

More lines, now with the values ahead:

- absorption maximum (in CCOC(C)=O): 388 nm
SMILES: OCc1cc2c(cc3ccc4cccc5ccc2c3c45)[nH]1

- absorption maximum (in CC#N): 428 nm
- absorption maximum (in ClCCl): 434 nm
SMILES: COC(=O)c1cc(=O)n(C)c2cc(-c3ccc(N(C)C)cc3)sc12

- absorption maximum (in CCO): 590 nm
- absorption maximum (in O): 590 nm
SMILES: CC/[NH+]=c1\cc2oc3cc(NCCNC(=O)C(NC(=O)OC(C)(C)C)C(C)C)c4ccccc4c3nc-2cc1C (centres undefined)

- absorption maximum (in ClCCl): 284 nm
SMILES: c1ccc(N(c2ccccc2)c2ccc(-c3ccc(-c4cc(-c5ccccn5)nc(-c5ccccn5)c4)cc3)cc2)cc1

- absorption maximum (in C1CCOC1): 500 nm
SMILES: FC(F)(F)C(F)(F)C(F)(F)C1=NC2=C(c3ccccc3)C=C3c4cc(-c5ccccc5)c5nc(C(F)(F)C(F)(F)C(F)(F)F)nc6c(-c7ccccc7)cc(c4c56)=C4C=C(c5ccccc5)C(=N1)C2C34 (centres undefined)

- absorption maximum (in ClC(Cl)Cl): 338 nm
SMILES: CCCCn1c2ccc(-c3ccc(OC)cc3)cc2c2ccc3c4cc(-c5ccc(OC)cc5)ccc4n(CCCC)c3c21

- absorption maximum (in ClCCl): 379 nm
SMILES: CN(C)c1ccc(/C=C/c2ncccn2)cc1

- absorption maximum (in ClCCl): 345 nm
SMILES: C(=C\c1ccc(-c2ccncc2)cc1)/c1ccc(-c2ccncc2)cc1

- absorption maximum (in ClCCl): 324 nm
SMILES: COC(=O)c1c(-c2cc3ccccc3oc2=O)nn(-c2cccc(C)c2)c1C(=O)OC

- absorption maximum (in CCO): 490 nm
SMILES: CNc1ccc2nc3cc(Cl)c(Cl)cc3nc2c1

- absorption maximum (in C1CCCCC1): 630 nm
- absorption maximum (in C1CCOC1): 632 nm
- absorption maximum (in C1COCCO1): 633 nm
- absorption maximum (in CO): 626 nm
- absorption maximum (in ClC(Cl)Cl): 635 nm
SMILES: Cc1ccc(C2=C3C=CC(/C=C/c4ccccc4)=[N+]3[B-](F)(F)n3c(/C=C/c4ccccc4)ccc32)cc1
